Consider 21 molecules from patent publication US10040781B2, “Tank-binding kinase inhibitor compounds” (Gilead Sciences, Inc., priority 2014, dated 2018).

One assay deals with TBK1 (Homo sapiens (Human), UniProt Q9UHD2). Briefly: TBK1 TR-FRET enzymatic assay.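 Note: phosphorylation of a biotinylated Ser/Thr peptide by purified full-length recombinant TBK1, read by TR-FRET after 240 min at 25 °C, IC50 is the geometric mean of at least four runs.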
The target in a further assay is hJAK2 (Homo sapiens (Human), UniProt O60674). Briefly: hJAK2 LANCE TR-FRET enzymatic assay. It counts as biochemical. The conditions noted are these: read-out: JAK2 IC50.
Sequence of hJAK2 (O60674 whole entry): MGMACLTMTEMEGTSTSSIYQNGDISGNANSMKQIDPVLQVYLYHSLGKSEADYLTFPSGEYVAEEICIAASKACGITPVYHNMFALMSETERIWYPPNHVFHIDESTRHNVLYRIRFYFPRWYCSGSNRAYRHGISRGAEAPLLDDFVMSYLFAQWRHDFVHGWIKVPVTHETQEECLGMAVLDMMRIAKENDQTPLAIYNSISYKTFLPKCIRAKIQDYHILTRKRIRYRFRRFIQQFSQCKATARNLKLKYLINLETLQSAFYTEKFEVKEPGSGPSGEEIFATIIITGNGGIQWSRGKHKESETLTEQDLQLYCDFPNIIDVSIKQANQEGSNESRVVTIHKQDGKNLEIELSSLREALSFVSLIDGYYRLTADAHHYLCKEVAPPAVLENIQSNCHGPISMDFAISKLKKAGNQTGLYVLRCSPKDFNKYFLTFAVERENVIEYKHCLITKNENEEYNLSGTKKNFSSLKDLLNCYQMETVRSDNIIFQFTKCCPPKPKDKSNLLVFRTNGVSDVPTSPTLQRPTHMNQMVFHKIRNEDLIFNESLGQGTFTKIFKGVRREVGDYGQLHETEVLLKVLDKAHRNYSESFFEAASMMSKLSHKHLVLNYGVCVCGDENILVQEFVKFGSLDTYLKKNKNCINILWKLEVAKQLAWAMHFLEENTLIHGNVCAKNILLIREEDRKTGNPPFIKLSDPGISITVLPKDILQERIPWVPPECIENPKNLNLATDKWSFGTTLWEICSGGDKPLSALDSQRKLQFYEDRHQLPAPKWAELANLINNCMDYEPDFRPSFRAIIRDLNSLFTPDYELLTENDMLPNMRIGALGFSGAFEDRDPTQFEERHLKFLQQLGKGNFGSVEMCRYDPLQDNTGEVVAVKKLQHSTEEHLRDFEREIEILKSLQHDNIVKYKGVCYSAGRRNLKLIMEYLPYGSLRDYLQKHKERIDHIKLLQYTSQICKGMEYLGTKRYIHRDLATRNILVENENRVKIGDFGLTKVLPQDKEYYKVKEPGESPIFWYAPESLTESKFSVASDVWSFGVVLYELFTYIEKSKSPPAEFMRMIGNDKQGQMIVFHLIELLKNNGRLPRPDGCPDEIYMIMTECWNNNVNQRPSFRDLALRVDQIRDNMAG
Another assay addresses IKKε (Homo sapiens (Human), UniProt Q14164). The assay can be described thus: IKKε TR-FRET enzymatic assay. It counts as biochemical. As to conditions: TR-FRET, 2×Km ATP; geometric mean of minimum four determinations; read-out: IKKe IC50.

Sequence of IKKε (Q14164 whole entry): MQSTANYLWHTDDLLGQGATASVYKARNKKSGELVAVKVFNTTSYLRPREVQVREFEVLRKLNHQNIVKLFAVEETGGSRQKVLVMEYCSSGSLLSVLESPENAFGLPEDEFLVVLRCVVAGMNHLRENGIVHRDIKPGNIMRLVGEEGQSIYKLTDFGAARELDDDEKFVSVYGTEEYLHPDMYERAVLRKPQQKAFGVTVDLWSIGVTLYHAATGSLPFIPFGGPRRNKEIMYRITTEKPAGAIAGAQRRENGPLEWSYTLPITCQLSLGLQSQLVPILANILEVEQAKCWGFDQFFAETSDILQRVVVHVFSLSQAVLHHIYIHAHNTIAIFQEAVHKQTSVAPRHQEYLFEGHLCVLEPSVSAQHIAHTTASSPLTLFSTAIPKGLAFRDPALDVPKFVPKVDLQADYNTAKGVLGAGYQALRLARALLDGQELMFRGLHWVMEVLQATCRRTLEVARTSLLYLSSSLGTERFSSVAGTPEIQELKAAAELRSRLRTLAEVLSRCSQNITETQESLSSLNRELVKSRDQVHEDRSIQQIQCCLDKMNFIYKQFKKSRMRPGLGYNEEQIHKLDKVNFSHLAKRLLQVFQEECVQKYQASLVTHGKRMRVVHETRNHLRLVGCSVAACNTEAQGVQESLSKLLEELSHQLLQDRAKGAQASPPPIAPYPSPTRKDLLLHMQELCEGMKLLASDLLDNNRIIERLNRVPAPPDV
Sequence of TBK1 (Q9UHD2 whole entry): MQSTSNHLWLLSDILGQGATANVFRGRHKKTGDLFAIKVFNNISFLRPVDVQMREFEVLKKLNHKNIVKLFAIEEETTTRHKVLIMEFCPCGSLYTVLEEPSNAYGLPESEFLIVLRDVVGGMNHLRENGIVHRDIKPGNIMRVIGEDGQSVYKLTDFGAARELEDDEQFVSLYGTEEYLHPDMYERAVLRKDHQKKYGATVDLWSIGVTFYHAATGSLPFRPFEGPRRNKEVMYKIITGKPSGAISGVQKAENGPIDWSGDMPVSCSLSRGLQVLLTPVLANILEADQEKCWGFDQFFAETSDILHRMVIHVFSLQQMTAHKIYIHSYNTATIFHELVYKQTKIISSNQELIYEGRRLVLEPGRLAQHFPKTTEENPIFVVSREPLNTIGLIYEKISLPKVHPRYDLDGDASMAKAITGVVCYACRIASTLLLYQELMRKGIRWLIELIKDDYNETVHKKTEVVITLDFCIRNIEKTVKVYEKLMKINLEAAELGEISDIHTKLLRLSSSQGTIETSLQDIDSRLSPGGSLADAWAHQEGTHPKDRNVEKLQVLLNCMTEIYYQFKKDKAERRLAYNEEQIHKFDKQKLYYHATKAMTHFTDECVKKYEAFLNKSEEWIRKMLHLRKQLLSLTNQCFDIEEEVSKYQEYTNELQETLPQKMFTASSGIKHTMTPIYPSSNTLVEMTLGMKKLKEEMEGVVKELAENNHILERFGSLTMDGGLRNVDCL

As for `Cc1cc(Nc2ncnc(-c3ccc(O[C@H]4CCN(C(=O)CC#N)C[C@H]4F)c(C#N)c3)n2)ccc1C1CCN(C)CC1` [Example 488, 2-(((3R,4S)-1-(2-cyanoacetyl)-3-fluoropiperidin-4-yl)oxy)-5-(4-((3-methyl-4-(1-methylpiperidin-4-yl)phenyl)amino)-1,3,5-triazin-2-yl)benzonitrile], the IC50 at TBK1 is 4 nM; on hJAK2, 131 nM; at IKKε, 1 nM.

For the molecule `COCC(=O)N1CC[C@H](Oc2ccc(-c3ncnc(Nc4ccc(C5CCN(C)CC5)c(C)c4)n3)cc2C#N)[C@H](F)C1` [Example 489, 2-(((3R,4S)-3-fluoro-1-(2-methoxyacetyl)piperidin-4-yl)oxy)-5-(4-((3-methyl-4-(1-methylpiperidin-4-yl)phenyl)amino)-1,3,5-triazin-2-yl)benzonitrile], the figures for the IC50 against TBK1, on hJAK2 and on IKKε were 4 nM, 183 nM and 1 nM, respectively.

Consider `N#Cc1cc(-c2ncnc(Nc3ccc(N4CCN(C5COC5)CC4)cc3)n2)ccc1OCC1(C#N)COC1` [Example 491, 3-((2-cyano-4-(4-((4-(4-(oxetan-3-yl)piperazin-1-yl)phenyl)amino)-1,3,5-triazin-2-yl)phenoxy)methyl)oxetane-3-carbonitrile], for which the half-inhibitory concentration (IC50) amounted to 25 nM against TBK1, 216 nM at hJAK2 and 33 nM on IKKε.

Regarding `COCC(=O)N1CC[C@H](Oc2ccc(-c3ncnc(Nc4ccc(C5CCN(C=O)CC5)c(C)c4)n3)cc2C#N)[C@H](F)C1` [Example 492, 2-(((3R,4S)-3-fluoro-1-(2-methoxyacetyl)piperidin-4-yl)oxy)-5-(4-((4-(1-formylpiperidin-4-yl)-3-methylphenyl)amino)-1,3,5-triazin-2-yl)benzonitrile], the half-maximal inhibitory concentration (IC50) on TBK1 came out at 2 nM; on hJAK2, 482 nM; at IKKε, 1 nM.

In the case of `Cc1cc(Nc2ncnc(-c3ccc(O[C@H]4CCN(C(=O)[C@H](C)O)C[C@H]4F)c(C#N)c3)n2)ccc1C1CCN(C=O)CC1` [Example 493, 2-(((3R,4S)-3-fluoro-1-((S)-2-hydroxypropanoyl)piperidin-4-yl)oxy)-5-(4-((4-(1-formylpiperidin-4-yl)-3-methylphenyl)amino)-1,3,5-triazin-2-yl)benzonitrile], the IC50 against TBK1 was 2 nM; on hJAK2, 782 nM; on IKKε, 1 nM.

As to `N#CCC(=O)Nc1ccc(-c2ncnc(Nc3ccc(N4CCN(C5COC5)CC4)cc3)n2)cc1C#N` [Example 494, 2-cyano-N-(2-cyano-4-(4-((4-(4-(oxetan-3-yl)piperazin-1-yl)phenyl)amino)-1,3,5-triazin-2-yl)phenyl)acetamide], the figures for the half-inhibitory concentration (IC50) at TBK1, at hJAK2 and at IKKε were 19 nM, 12 nM and 29 nM, respectively.

For the molecule `CCC(=O)Nc1ccc(-c2ncnc(Nc3ccc(N4CCN(C5COC5)CC4)cc3)n2)cc1C#N` [Example 495, N-(2-cyano-4-(4-((4-(4-(oxetan-3-yl)piperazin-1-yl)phenyl)amino)-1,3,5-triazin-2-yl)phenyl)propionamide], the IC50 against TBK1 turned out to be 40 nM; on hJAK2 it was 109 nM; at IKKε it was 119 nM.

`N#Cc1cc(-c2ncnc(Nc3ccc(N4CCN(C5COC5)CC4)cc3)n2)ccc1NC(=O)CC(F)(F)F` [Example 496, N-(2-cyano-4-(4-((4-(4-(oxetan-3-yl)piperazin-1-yl)phenyl)amino)-1,3,5-triazin-2-yl)phenyl)-3,3,3-trifluoropropanamide]: the IC50 turned out to be 6 nM at TBK1, 8 nM at hJAK2 and 8 nM on IKKε.

For `COc1cc(Nc2ncnc(-c3ccc(O[C@H]4CCN(C(=O)[C@H](C)O)C[C@H]4F)c(C#N)c3)n2)ccc1N1CCN(C)C[C@@H]1C` [Example 499, 5-(4-((4-((S)-2,4-dimethylpiperazin-1-yl)-3-methoxyphenyl)amino)-1,3,5-triazin-2-yl)-2-(((3R,4S)-3-fluoro-1-((S)-2-hydroxypropanoyl)piperidin-4-yl)oxy)benzonitrile], the IC50 against TBK1 came to 2 nM; on hJAK2, 79 nM; on IKKε, 1 nM.

`CCn1cc(Nc2ncnc(-c3ccc(O[C@H]4CCN(C(=O)CO)C[C@H]4F)c(C#N)c3)n2)nn1` [Example 502, 5-(4-((1-ethyl-1H-1,2,3-triazol-4-yl)amino)-1,3,5-triazin-2-yl)-2-(((3R,4S)-3-fluoro-1-(2-hydroxyacetyl)piperidin-4-yl)oxy)benzonitrile]: the IC50 is 28 nM at TBK1, ≥ 1000 nM at hJAK2 and 29 nM on IKKε.

`CCn1ncc(Nc2ncnc(-c3ccc(O[C@H]4CCN(C(=O)CO)C[C@H]4F)c(C#N)c3)n2)n1` [Example 503, 5-(4-((2-ethyl-2H-1,2,3-triazol-4-yl)amino)-1,3,5-triazin-2-yl)-2-(((3R,4S)-3-fluoro-1-(2-hydroxyacetyl)piperidin-4-yl)oxy)benzonitrile]: the IC50 on TBK1 is 7 nM; at hJAK2, ≥ 1000 nM; on IKKε it was 20 nM.

On to `N#Cc1cc(-c2ncnc(Nc3ccc(N4CCN(C5COC5)CC4)cc3)n2)ccc1O[C@H]1CCN(C(=O)[C@@H]2CCCO2)C[C@H]1F` [Example 504, 2-(((3R,4S)-3-fluoro-1-((S)-tetrahydrofuran-2-carbonyl)piperidin-4-yl)oxy)-5-(4-((4-(4-(oxetan-3-yl)piperazin-1-yl)phenyl)amino)-1,3,5-triazin-2-yl)benzonitrile], for which the IC50 is 4 nM against TBK1, ≥ 1000 nM at hJAK2 and 5 nM on IKKε.

`N#Cc1cc(-c2ncnc(Nc3ccc(N4CCN(C5COC5)CC4)cc3)n2)ccc1O[C@H]1CCN(C(=O)[C@H]2CCCO2)C[C@H]1F` [Example 505, 2-(((3R,4S)-3-fluoro-1-((R)-tetrahydrofuran-2-carbonyl)piperidin-4-yl)oxy)-5-(4-((4-(4-(oxetan-3-yl)piperazin-1-yl)phenyl)amino)-1,3,5-triazin-2-yl)benzonitrile]: the IC50 was determined as 12 nM against TBK1, 532 nM on hJAK2 and 41 nM at IKKε.

Turning to `N#Cc1cc(-c2ncnc(Nc3cnn(CCO)c3)n2)ccc1O[C@H]1CCN(C(=O)CO)C[C@H]1F` [Example 506, 2-(((3R,4S)-3-fluoro-1-(2-hydroxyacetyl)piperidin-4-yl)oxy)-5-(4-((1-(2-hydroxyethyl)-1H-pyrazol-4-yl)amino)-1,3,5-triazin-2-yl)benzonitrile], the values for the IC50 on TBK1, at hJAK2 and at IKKε were 3 nM, 601 nM and 3 nM, respectively.

With `N#Cc1cc(-c2ncnc(Nc3cn[nH]c3)n2)ccc1O[C@H]1CCN(C(=O)CO)C[C@H]1F` [Example 507, 5-(4-((1H-pyrazol-4-yl)amino)-1,3,5-triazin-2-yl)-2-(((3R,4S)-3-fluoro-1-(2-hydroxyacetyl)piperidin-4-yl)oxy)benzonitrile], the IC50 at TBK1 was determined as 3 nM; on hJAK2 it was 432 nM; on IKKε it was 2 nM.

As for `N#Cc1cc(-c2ncnc(Nc3ccc(C4CCN(C5COC5)CC4)cc3)n2)ccc1O[C@H]1CCN(C(=O)[C@@H](O)CO)C[C@H]1F` [Example 509, 2-(((3R,4S)-1-((S)-2,3-dihydroxypropanoyl)-3-fluoropiperidin-4-yl)oxy)-5-(4-((4-(1-(oxetan-3-yl)piperidin-4-yl)phenyl)amino)-1,3,5-triazin-2-yl)benzonitrile], the IC50 on TBK1 amounted to 3 nM; at hJAK2, 699 nM; at IKKε, 1 nM.

`N#Cc1cc(-c2ncnc(Nc3ccc(N4CCN(C5COC5)CC4)nc3)n2)ccc1O[C@H]1CCN(C(=O)[C@@H](O)CO)C[C@H]1F` [Example 510, 2-(((3R,4S)-1-((S)-2,3-dihydroxypropanoyl)-3-fluoropiperidin-4-yl)oxy)-5-(4-((6-(4-(oxetan-3-yl)piperazin-1-yl)pyridin-3-yl)amino)-1,3,5-triazin-2-yl)benzonitrile]: the IC50 on TBK1 was 4 nM; on hJAK2, ≥ 1000 nM; at IKKε, 2 nM.

As for `COc1cc(Nc2ncnc(-c3ccc(O[C@H]4CCN(C(=O)[C@@H](O)CO)C[C@H]4F)c(C#N)c3)n2)cnc1N1CCN(C2COC2)CC1` [Example 511, 2-(((3R,4S)-1-((S)-2,3-dihydroxypropanoyl)-3-fluoropiperidin-4-yl)oxy)-5-(4-((5-methoxy-6-(4-(oxetan-3-yl)piperazin-1-yl)pyridin-3-yl)amino)-1,3,5-triazin-2-yl)benzonitrile], the figures for the IC50 against TBK1, on hJAK2 and at IKKε were 4 nM, ≥ 1000 nM and 2 nM, respectively.

Consider `CC(C)(O)Cn1cc(Nc2ncnc(-c3ccc(O[C@H]4CCN(C(=O)[C@@H](O)CO)C[C@H]4F)c(C#N)c3)n2)cn1` [Example 512, 2-(((3R,4S)-1-((S)-2,3-dihydroxypropanoyl)-3-fluoropiperidin-4-yl)oxy)-5-(4-((1-(2-hydroxy-2-methylpropyl)-1H-pyrazol-4-yl)amino)-1,3,5-triazin-2-yl)benzonitrile], for which the figures for the IC50 against TBK1, on hJAK2 and on IKKε were 2 nM, ≥ 1000 nM and 2 nM, respectively.

`Cc1cc(Nc2ncnc(-c3ccc(O[C@H]4CCN(C(=O)[C@@H](O)CO)C[C@H]4F)c(C#N)c3)n2)cnc1N1CCN(C2COC2)CC1` [Example 513, 2-(((3R,4S)-1-((S)-2,3-dihydroxypropanoyl)-3-fluoropiperidin-4-yl)oxy)-5-(4-((5-methyl-6-(4-(oxetan-3-yl)piperazin-1-yl)pyridin-3-yl)amino)-1,3,5-triazin-2-yl)benzonitrile]: the IC50 against TBK1 worked out at 2 nM; at hJAK2, 517 nM; at IKKε, 1 nM.

Consider `C[C@H](O)C(=O)N1CC[C@H](Oc2ccc(-c3ncnc(Nc4cnc5c(c4)OCCN5)n3)cc2C#N)[C@H](F)C1` [Example 516, 5-(4-((3,4-dihydro-2H-pyrido[3,2-b][1,4]oxazin-7-yl)amino)-1,3,5-triazin-2-yl)-2-(((3R,4S)-3-fluoro-1-((S)-2-hydroxypropanoyl)piperidin-4-yl)oxy)benzonitrile], for which the figures for the IC50 against TBK1, on hJAK2 and at IKKε were 6 nM, ≥ 1000 nM and 10 nM, respectively.
